Laboratory results: patent US20150297718A1, “ION[…] OF CATIONIC PRODRUGS FOR TOPICAL TREATMENT OF MUSCU[…] SKIN DISEASES” (priority 2014, published 2015)
Where a name gives a salt, the structure may show the parent alone.

Assays:
[1] = Passive penetration across human epidermis skin in side-by-side diffusion cells; conditions: no electric current, 6 hours
From the text: The efficiency in anode iontophoresis delivery of KCE and that in cathode iontophoresis delivery of ketoprofen were compared with an in-vitro side-by-side diffusion cell study. […] The human cadaver epidermis skin was sandwiched between the two half cells with stratum corneum face the donor chamber. […] Phosphate buffer solution (0.15 M at pH 7.4) was placed in the receiver chamber. […]

melanoma cell (A375) = assay: In vitro cell viability assay on melanoma cell growth; type: cell-based; conditions: A375 cells, read-out: 50% inhibition concentration (IC50) on melanoma cell (A375) growth
From the text: The drug concentrations in the skin after the iontophoresis delivery of those prodrugs or their parent drug ketoprofen from different iontophoresis conditions are summarized in Table 2. The high drug concentration in the skin can be used for treatment of skin diseases including skin cancers such as melanoma. […] The ketoprofen concentrations in the skin from the iontophoresis delivery was not higher than its IC50 against the melanoma cell growth, but the KCE and KME concentrations in the skin from the anode iontophoresis delivery were higher than their IC50 against the melanoma cell growth. Thus, the anode iontophoresis of the prodrugs can provide high drug accumulation in the skin, and such high drug accumulation in the skin can be used for skin disease treatment.

[2] = tested on: knee arthritis pain model (monosodium iodoacetate); assay: MIA knee osteoarthritis rat model treated with iontophoresis; type: in vivo; conditions: 0.4 mA/cm^2 for 20 min on days 1, 2, 3 after MIA; versus iontophoresis of NaCl
Protocol: A knee arthritis pain model was established by injection of 50 μl of 60 mg/ml monosodium iodoacetate (MIA) into the left hind knee joint of 12 hairless rats, and they were divided into three groups. The knee diameters of both hind knees were measured. The difference in knee diameters between the left knee and right knee was used as the indicator of the swelling (or inflammation) of the left knee. In addition, the weight bearing of each hind limb was also measured with a Linton incapacitance tester. The percentage of the weight bearing by the left leg was used as an indicator of the pain level in the knee. At 1 day, 2 days, 3 days after the injection of MIA, the left knee of the rats in group 1 was treated with iontophoresis of NaCl to the left hind knee at 0.4 mA/cm^2 for 20 min, group 2 treated with iontophoresis of Kt to the left hind knee at 0.4 mA/cm^2 for 20 min, and group 3 treated with iontophoresis of KCE to the left hind knee at 0.4 mA/cm^2 for 20 min. The knee diameter and weight bearing were measured at day 0 before the MIA injection, and also at day 1, 2, and 3 after the MIA injection but before the iontophoresis treatment. They were also measured at day 4, 6, and 10 after the MIA injection.

[3] = In vivo rat study of iontophoresis delivery on dorsal back skin: tissue and plasma drug concentrations; conditions: for Drug concentration in the skin: delivered drug (prodrug or ketoprofen); for Concentration of ketoprofen converted from the prodrug in the skin: number in bracket
Protocol: (§1) The anode iontophoresis of ketoprofen cationic prodrugs KCE, KME and cathode iontophoresis of ketoprofen were compared with an in vivo rat study for evaluation of drug penetration into deep tissues. […] A prodrug solution was loaded in the cell. A constant current of 0.4 mA/cm^2 for iontophoresis was applied for 6 hours. At the end of the iontophoresis delivery, the rats were euthanized. The skin of the application site (under the glass cell) was washed with water, tape stripped once to remove residue drug on skin, and then dissected with a biopsy punch for the tissue layers: epidermis and dermis layer (depth 0-3 mm), subcutaneous tissue (fat pad) (3-4 mm), shallow muscle layer (4-6 mm), and deep muscle (6-10 mm). The tissues from the contralateral site were dissected with the same method. In addition, the plasma blood samples were obtained right before the experiment (time 0) and each hour during the experiment. The drug concentrations in the tissue and plasma samples were analyzed with a HPLC.
as §1, with “cationic prodrugs and cathode” for “cationic prodrugs KCE, KME and cathode”, “ketoprofen were also compared with” for “ketoprofen were compared with”, “rat study at 0.4 mA/cm^2 for a shorter duration of 2 hours for evaluation” for “rat study for evaluation”, “applied for 2 hours. At” for “applied for 6 hours. At”
as §1, with “cationic prodrugs and cathode” for “cationic prodrugs KCE, KME and cathode”, “ketoprofen were also compared with” for “ketoprofen were compared with”, “rat study at 0.057 mA/cm^2 for a duration of 6 hours for evaluation” for “rat study for evaluation”, “current of 0.057 mA/cm^2 for” for “current of 0.4 mA/cm^2 for”, “with a HPLC” for “with a HPLC.”
KPE is a prodrug of ketoprofen but with two methyl groups on the nitrogen atom, instead of three methyl groups on the nitrogen atom like KCE and KME. KPE can be presented as a hydrochloride salt. […] Anode iontophoresis delivery of KPE in this aqueous solution at 0.4 mA/cm^2 for a shorter duration of 2 hour was also conducted with the in vivo rat study.

[4] = Bioconversion of ketoprofen prodrugs in fresh rat plasma
[5] = In-vitro side-by-side diffusion cell study, iontophoresis across human epidermis skin; type: in vitro ADME
From the text: The efficiency in anode iontophoresis delivery of KCE and that in cathode iontophoresis delivery of ketoprofen were compared with an in-vitro side-by-side diffusion cell study. […] The human cadaver epidermis skin was sandwiched between the two half cells with stratum corneum face the donor chamber. For anode iontophoresis of KCE, KCE chloride salt solution (26.6 μmol/ml) was placed in the donor cell. For cathode iontophoresis of ketoprofen (Kt), […] solution (26.6 μmol/ml) was placed in the donor cell. Phosphate buffer solution (0.15 M at pH 7.4) was placed in the receiver chamber. Constant current 0.2 mA was applied to the diffusion cell. The amount of drug penetrated through the skin was collected in the receive chamber and analyzed with a HPLC. The anode iontophoresis of the cationic prodrug KCE delivered 4 times more drug across the skin than that delivered by the cathode iontophoresis of ketoprofen (see FIG. 4A) from the in-vitro study.
Anode iontophoresis of the cationic ketoprofen prodrug KCE (26.6 μmol/ml) with the presence of phenylephrine (PE) (4.9 μmol/ml) in solution was evaluated with an in-vitro diffusion cell study across a human epidermis skin.

[6] = Iontophoresis delivery into hairless rat knee joint: tissue and plasma drug concentrations; type: in vivo; conditions: 0.4 mA/cm^2 for 20 min; 0.5-hour and 2-hour time points
Protocol: Hairless rats were anaesthetized with isoflurane. A rubber disk shape applicator with a sponge that can hold 0.5 ml of the drug solution was used and a button Ag/AgCl electrode was used as current driving electrode. The delivery area is about 1.2 cm^2. After drug solution was loaded into the sponge, the applicator was placed on the knee cap skin and applied an electric current at 0.4 mA/cm^2 for 20 min. A return electrode was attached to the upper tail of the rat. After that, the skin was cleaned thoroughly with wet Kim wipes. The tissues (skin, muscle and joint) at the application site knee and also the contralateral site knee were collected at 30 min, 2 hr, 4 hr or 6 hr from the start of iontophoresis delivery. Three animals were used for each time point. Blood samples were also collected at appropriate time points. The tissue and blood samples were stored at −80° C. until further processing.

[7] = Bioconversion of ketoprofen prodrugs in fresh human plasma
[8] = iontophoresis 0.057 mA/cm^2 for 6 hrs
[9] = iontophoresis 0.4 mA/cm^2 for 2 hrs
[10] = iontophoresis 0.4 mA/cm^2 for 6 hrs

**Q.** For `CC(C(=O)OCC[N+](C)(C)C)c1cccc(C(=O)c2ccccc2)c1` (stereo not shown) [KCE, Ketoprofen choline ester chloride salt], which “Passive penetration across human epidermis skin” value [1] is on record?
**A.** Its value is “Almost no KCE chloride was penetrated across the human skin in 6 hours”.

**Q.** And the IC50 (melanoma cell (A375))?
**A.** The IC50 was 2.65 mM.

**Q.** And the “Knee swelling (knee diameter difference left vs right)” value [2]?
**A.** The value was “significant reduction of the knee swelling”.

**Q.** And the “Weight bearing of the left leg (pain indicator)” value [2]?
**A.** The value was “significant improvement in the weight bearing of the left leg”.

**Q.** And the “Plasma and contralateral tissue drug concentration” value ([3]; 0.057 mA/cm^2 for 6 hours)?
**A.** The value was “initial lower plasma concentration, but reached a plasma concentration similar to that from iontophoresis of Kt at 6 hours”.

**Q.** And the “Tissue drug concentrations / direct penetration at the application site” value ([3]; 0.057 mA/cm^2 for 6 hours)?
**A.** The value was “direct penetration into deeper tissues that is up into the shallow muscles”.

**Q.** And the Plasma drug concentration ([3]; 0.4 mA/cm^2 for 2 hours)?
**A.** Its Plasma drug concentration is “lower than that from iontophoresis of ketoprofen”.

**Q.** What about the “Tissue drug concentrations / direct penetration at the application site” value ([3]; 0.4 mA/cm^2 for 2 hours) of the same compound?
**A.** Its value is “direct penetration into deeper tissues up into the deep muscles”.

**Q.** What about the “Drug in tissues at the contralateral site” value ([3]; 0.4 mA/cm^2 for 6 hours) of the same compound?
**A.** The value was “No prodrug was detected in the contralateral tissues”.

**Q.** What about the Plasma drug concentration ([3]; 0.4 mA/cm^2 for 6 hours) of the same compound?
**A.** Its Plasma drug concentration is “much lower than that from the iontophoresis of Kt”.

**Q.** And the “Tissue drug concentrations / direct penetration at the application site” value ([3]; 0.4 mA/cm^2 for 6 hours)?
**A.** The value was “much higher concentration in the drug application site than the Kt concentration in the contralateral site”.

**Q.** What about the “Drug concentration in the skin” value [3, 8] of the same compound?
**A.** Its value is 887 μmol per kilogram of skin.

**Q.** What about the “Concentration of ketoprofen converted from the prodrug in the skin” value (“Concentration of ketoprofen converted” for short) [3, 8] of the same compound?
**A.** Its value is 905 μmol per kilogram of skin.

**Q.** And the “Drug concentration in the skin” value [3, 9]?
**A.** The value was 6719 μmol per kilogram of skin.

**Q.** What about the “Concentration of ketoprofen converted” value [3, 9] of the same compound?
**A.** Its value is 2996 μmol per kilogram of skin.

**Q.** What about the “Drug concentration in the skin” value [3, 10] of the same compound?
**A.** The value was 25869 μmol per kilogram of skin.

**Q.** What about the “Concentration of ketoprofen converted” value [3, 10] of the same compound?
**A.** Its value is 13527 μmol per kilogram of skin.

**Q.** And the “Bioconversion (half life) in rat plasma” value [4]?
**A.** The value was 8.6 min.

**Q.** And the “Drug delivered across the skin relative to cathode iontophoresis of ketoprofen” value ([5]; 0.2 mA constant current, 26.6 μmol/ml donor, anode iontophoresis)?
**A.** Its value is 4 times.

**Q.** And the “Amount penetrated across the skin by anode iontophoresis, KCE alone versus KCE with phenylephrine” value ([5]; KCE 26.6 μmol/ml, PE 4.9 μmol/ml, 0.2 mA)?
**A.** Its value is “slightly higher than that with the PE in the solution”.

**Q.** And the “Drug concentrations in the knee joint and surrounding muscle tissues” value [6]?
**A.** The value was “higher drug concentrations in the knee joint and also surrounding muscle tissues than those from the cathode iontophoresis of Kt”.

**Q.** What about the “Bioconversion (half life) in human plasma” value [7] of the same compound?
**A.** The value was <2 min.
